For this assay, the system named is M. catarrhalis A894. As to the kind of experiment: MIC determination by microdilution in cation-adjusted Mueller-Hinton Broth (NCCLS). The settings on record: Moraxella catarrhalis, pH 7.2-7.3. In kind it is cell-based. The protocol: These assays have been performed following the description given in “Methods for dilution Antimicrobial Susceptibility Tests for Bacteria that Grow Aerobically, 4th ed.; Approved standard: NCCLS Document M7-A4; National Committee for Clinical Laboratory Standards: Villanova, Pa., USA, 1997”. Minimal inhibitory concentrations (MICs; mg/l) were determined in cation-adjusted Mueller-Hinton Broth (BBL) by a microdilution method following NCCLS guidelines (National Committee for Clinical Laboratory Standards. Methods for Dilution Antimicrobial Susceptibility). The pH of the test medium was 7.2-7.3. All Example compounds were tested against several Gram-positive and Gram-negative bacteria.

Converted amounts (≈) assume the structure as drawn.

A word on the MIC: it is the lowest concentration found to suppress growth.

`COc1ccc2ncnc(OC3CCN(C[C@@H]4CN(c5ccc6c(c5)OCCO6)C(=O)O4)C3)c2c1` (mixture of isomers) [Example 4, (R)-3-(2,3-dihydro-benzo[1,4]dioxin-6-yl)-5-[(RS)-3-(6-methoxy-quinazolin-4-yloxy)-pyrrolidin-1-ylmethyl]-oxazolidin-2-one] returned an MIC of at most 0.031 µg/mL. On to `COc1ccc2nccc(NC(=O)C3CCN(C[C@@H]4CN(c5ccc6c(c5)NC(=O)CS6)C(=O)O4)C3)c2n1` (mixture of isomers) [Example 8, (RS)-1-[(R)-2-oxo-3-(3-oxo-3,4-dihydro-2H-benzo[1,4]thiazin-6-yl)-oxazolidin-5-ylmethyl]-pyrrolidine-3-carboxylic acid (6-methoxy-[1,5]naphthyridin-4-yl)-amide], for which the minimal inhibitory concentration (MIC) was at most 0.031 µg/mL. With `COc1ccc2nccc(/C=C/C3CCN(C[C@@H]4CN(c5ccc6c(c5)NC(=O)CS6)C(=O)O4)C3)c2n1` (mixture of isomers) [Example 9, 6-((R)-5-{(RS)-3-[(E)-2-(6-methoxy-[1,5]naphthyridin-4-yl)-vinyl]-pyrrolidin-1-ylmethyl}-2-oxo-oxazolidin-3-yl)-4H-benzo[1,4]thiazin-3-one] the figure was at most 0.031 µg/mL.

Molecule `COc1ccc2nccc(CCC3CCN(C[C@@H]4CN(c5ccc6c(c5)NC(=O)CS6)C(=O)O4)C3)c2n1` (mixture of isomers) [Example 10, 6-((R)-5-{(RS)-3-[2-(6-methoxy-[1,5]naphthyridin-4-yl)-ethyl]-pyrrolidin-1-ylmethyl}-2-oxo-oxazolidin-3-yl)-4H-benzo[1,4]thiazin-3-one] had an MIC of at most 0.031 µg/mL. With `COc1ccc2nccc([C@@H](O)[C@H](O)C3CCN(C[C@@H]4CN(c5ccc6c(c5)NC(=O)CS6)C(=O)O4)C3)c2n1` (mixture of isomers) [Example 11, 6-((R)-5-{(RS)-3-[(1R,2R)-1,2-dihydroxy-2-(6-methoxy-[1,5]naphthyridin-4-yl)-ethyl]-pyrrolidin-1-ylmethyl}-2-oxo-oxazolidin-3-yl)-4H-benzo[1,4]thiazin-3-one] the figure was 0.125 µg/mL; with `COc1cnc2cccc(C(O)C3(O)CCN(C[C@@H]4CN(c5ccc6c(c5)NC(=O)CS6)C(=O)O4)CC3)c2n1` (mixture of isomers) [Example 13, 6-((R)-5-{4-hydroxy-4-[(RS)-hydroxy-(3-methoxy-quinoxalin-5-yl)-methyl]-piperidin-1-ylmethyl}-2-oxo-oxazolidin-3-yl)-4H-benzo[1,4]thiazin-3-one], 0.5 µg/mL. `COc1ccc2ncnc(OC3CCN(C[C@@H]4CN(c5cc6c(nn5)OCCO6)C(=O)O4)C3)c2c1` (mixture of isomers) [Example 33, (R)-3-(6,7-dihydro-[1,4]dioxino[2,3-c]pyridazin-3-yl)-5-[(RS)-3-(6-methoxy-quinazolin-4-yloxy)-pyrrolidin-1-ylmethyl]-oxazolidin-2-one]: the MIC was found to be 0.25 µg/mL. With `COc1ccc2ncnc(O[C@@H]3CN(C[C@@H]4CN(c5ccc6c(c5)NC(=O)CS6)C(=O)O4)C[C@H]3n3ccnn3)c2c1` (relative stereo) [Example 16, 6-{(R)-5-[(3R*,4R*)-3-(6-methoxy-quinazolin-4-yloxy)-4-[1,2,3]triazol-1-yl-pyrrolidin-1-ylmethyl]-2-oxo-oxazolidin-3-yl}-4H-benzo[1,4]thiazin-3-one] the figure was at most 0.031 µg/mL; with `COc1ccc2ncnc(O[C@@H]3CN(C[C@@H]4CN(c5ccc6c(c5)NC(=O)CS6)C(=O)O4)C[C@H]3N)c2c1` (relative stereo) [Example 18, 6-{(R)-5-[(3R*,4R*)-3-amino-4-(6-methoxy-quinazolin-4-yloxy)-pyrrolidin-1-ylmethyl]-2-oxo-oxazolidin-3-yl}-4H-benzo[1,4]thiazin-3-one], at most 0.031 µg/mL; with `COc1ccc2ncnc(O[C@H]3CN(C[C@@H]4CN(c5ccc6c(c5)NC(=O)CS6)C(=O)O4)C[C@H]3O)c2c1` (relative stereo) [Example 21, 6-{(R)-5-[(3R*,4S*)-3-hydroxy-4-(6-methoxy-quinazolin-4-yloxy)-pyrrolidin-1-ylmethyl]-2-oxo-oxazolidin-3-yl}-4H-benzo[1,4]thiazin-3-one], at most 0.031 µg/mL. With `COc1ccc2ncnc(O[C@@H]3CN(C[C@@H]4CN(c5ccc6c(c5)NC(=O)CS6)C(=O)O4)C[C@H]3O)c2c1` (relative stereo) [Example 22, 6-{(R)-5-[(3R*,4R*)-3-hydroxy-4-(6-methoxy-quinazolin-4-yloxy)-pyrrolidin-1-ylmethyl]-2-oxo-oxazolidin-3-yl}-4H-benzo[1,4]thiazin-3-one] the figure was at most 0.031 µg/mL; with `COc1ccc2ncnc(O[C@@H]3CN(C[C@@H]4CN(c5ccc6c(c5)NC(=O)CS6)C(=O)O4)C[C@H]3NC(C)=O)c2c1` (relative stereo) [Example 32, N-{(3R*,4R*)-4-(6-methoxy-quinazolin-4-yloxy)-1-[(R)-2-oxo-3-(3-oxo-3,4-dihydro-2H-benzo[1,4]thiazin-6-yl)-oxazolidin-5-ylmethyl]-pyrrolidin-3-yl}-acetamide], 0.25 µg/mL (≈ 0.443 µM); with `COc1ccc2nccc(OC3CN(C[C@@H]4CN(c5ccc6c(c5)NC(=O)CS6)C(=O)O4)C3)c2n1` [Example 1, 6-{(R)-5-[3-(6-methoxy-[1,5]naphthyridin-4-yloxy)-azetidin-1-ylmethyl]-2-oxo-oxazolidin-3-yl}-4H-benzo[1,4]thiazin-3-one], at most 0.031 µg/mL. With `COc1ccc2ncnc(O[C@@H]3CCN(C[C@@H]4CN(c5ccc6c(c5)NC(=O)CS6)C(=O)O4)C3)c2c1` [Example 2, 6-{(R)-5-[(R)-3-(6-methoxy-quinazolin-4-yloxy)-pyrrolidin-1-ylmethyl]-2-oxo-oxazolidin-3-yl}-4H-benzo[1,4]thiazin-3-one] the figure was at most 0.031 µg/mL; with `COc1ccc2ncnc(O[C@H]3CCN(C[C@@H]4CN(c5ccc6c(c5)NC(=O)CS6)C(=O)O4)C3)c2c1` [Example 3, 6-{(R)-5-[(S)-3-(6-methoxy-quinazolin-4-yloxy)-pyrrolidin-1-ylmethyl]-2-oxo-oxazolidin-3-yl}-4H-benzo[1,4]thiazin-3-one], at most 0.031 µg/mL; with `COc1ccc2ncnc(O[C@H]3C[C@@H](CO)N(C[C@@H]4CN(c5ccc6c(c5)NC(=O)CS6)C(=O)O4)C3)c2c1` [Example 5, 6-{(R)-5-[(2S,4S)-2-hydroxymethyl-4-(6-methoxy-quinazolin-4-yloxy)-pyrrolidin-1-ylmethyl]-2-oxo-oxazolidin-3-yl}-4H-benzo[1,4]thiazin-3-one], at most 0.031 µg/mL. On to `COc1ccc2ncnc(O[C@H]3C[C@@H](CN=[N+]=[N-])N(C[C@@H]4CN(c5ccc6c(c5)NC(=O)CS6)C(=O)O4)C3)c2c1` [Example 6, 6-{(R)-5-[(2S,4S)-2-azidomethyl-4-(6-methoxy-quinazolin-4-yloxy)-pyrrolidin-1-ylmethyl]-2-oxo-oxazolidin-3-yl}-4H-benzo[1,4]thiazin-3-one], for which the minimal inhibitory concentration (MIC) was at most 0.031 µg/mL.

In turn, `COc1ccc2nccc(NC(=O)C3CN(C[C@@H]4CN(c5ccc6c(c5)NC(=O)CS6)C(=O)O4)C3)c2n1` [Example 7, 1-[(R)-2-oxo-3-(3-oxo-3,4-dihydro-2H-benzo[1,4]thiazin-6-yl)-oxazolidin-5-ylmethyl]-azetidine-3-carboxylic acid (6-methoxy-[1,5]naphthyridin-4-yl)-amide] registered an MIC of at most 0.031 µg/mL. With `COc1cnc2cccc(C=C3CCN(C[C@@H]4CN(c5ccc6c(c5)NC(=O)CS6)C(=O)O4)CC3)c2n1` [Example 12, 6-{(R)-5-[4-(3-methoxy-quinoxalin-5-ylmethylene)-piperidin-1-ylmethyl]-2-oxo-oxazolidin-3-yl}-4H-benzo[1,4]thiazin-3-one] the figure was at most 0.031 µg/mL; with `COc1ccc2nccc(NCC3CN(C[C@@H]4CN(c5ccc6c(c5)NC(=O)CS6)C(=O)O4)C3)c2n1` [Example 14, 6-((R)-5-{3-[(6-methoxy-[1,5]naphthyridin-4-ylamino)-methyl]-azetidin-1-ylmethyl}-2-oxo-oxazolidin-3-yl)-4H-benzo[1,4]thiazin-3-one], at most 0.031 µg/mL; with `COc1ccc2ncnc(O[C@H]3C[C@@H](CN)N(C[C@@H]4CN(c5ccc6c(c5)NC(=O)CS6)C(=O)O4)C3)c2c1` [Example 15, 6-{(R)-5-[(2S,4S)-2-aminomethyl-4-(6-methoxy-quinazolin-4-yloxy)-pyrrolidin-1-ylmethyl]-2-oxo-oxazolidin-3-yl}-4H-benzo[1,4]thiazin-3-one], at most 0.031 µg/mL. With `COc1ccc2ncnc(O[C@H]3C[C@@H](CNC(C)=O)N(C[C@@H]4CN(c5ccc6c(c5)NC(=O)CS6)C(=O)O4)C3)c2c1` [Example 17, N-{(2S,4S)-4-(6-methoxy-quinazolin-4-yloxy)-1-[(R)-2-oxo-3-(3-oxo-3,4-dihydro-2H-benzo[1,4]thiazin-6-yl)-oxazolidin-5-ylmethyl]-pyrrolidin-2-ylmethyl}-acetamide], the minimal inhibitory concentration (MIC) was found to be 0.25 µg/mL (≈ 0.432 µM). The molecule `COc1ccc2ncnc(O[C@H]3C[C@@H](Cn4ccnn4)N(C[C@@H]4CN(c5ccc6c(c5)NC(=O)CS6)C(=O)O4)C3)c2c1` [Example 19, 6-{(R)-5-[(2S,4S)-4-(6-methoxy-quinazolin-4-yloxy)-2-[1,2,3]triazol-1-ylmethyl-pyrrolidin-1-ylmethyl]-2-oxo-oxazolidin-3-yl}-4H-benzo[1,4]thiazin-3-one] gave an MIC of 0.063 µg/mL (≈ 0.107 µM). The molecule `COc1ccc2ncnc(OC3CCN(C[C@@H]4CN(c5ccc6c(c5)NC(=O)CS6)C(=O)O4)CC3)c2c1` [Example 20, 6-{(R)-5-[4-(6-methoxy-quinazolin-4-yloxy)-piperidin-1-ylmethyl]-2-oxo-oxazolidin-3-yl}-4H-benzo[1,4]thiazin-3-one] had an MIC of at most 0.031 µg/mL. `COc1ccc2ncc(F)c(NC3CN(C[C@@H]4CN(c5ccc6c(c5)NC(=O)CO6)C(=O)O4)C3)c2n1` [Example 23, 6-{(R)-5-[3-(3-fluoro-6-methoxy-[1,5]naphthyridin-4-ylamino)-azetidin-1-ylmethyl]-2-oxo-oxazolidin-3-yl}-4H-benzo[1,4]oxazin-3-one] registered an MIC of at most 0.031 µg/mL.

The values are drawn from patent US9505750B2, “5-aminocyclylmethyl-oxazolidin-2-one derivatives” (priority 2007, dated 2016).
